From ChEMBL document CHEMBL3886544, “Substituted dialkyl(oxido)-lambda4-sulfanylidene nicotinamide derivatives as kinase inhibitors” (2016)

Tests used:
[1] = molecular target: T1, Vascular endothelial growth factor receptor 2 (Homo sapiens, UniProt P35968); assay: VEGFR2 Kinase Assay: Biochemical KDR kinase assays were performed in 96 well microtiter plates that were coated overnight with 75 ug/well of poly-Glu-Tyr (4:1) in 10 mM Phosphate Buffered Saline (PBS), pH 7.4. The coated plates were washed with 2 mls per well PBS+0.05% Tween-20 (PBS-T), blocked by incubation with PBS containing 1% BSA, then washed with 2 mls per well PBS-T prior to starting the reaction. Reactions were carried out in 100 uL reaction volumes containing 2.7 uM ATP in kinase buffer (50 mM Hepes buffer pH 7.4, 20 mM MgCl2, 0.1 mM MnCl2 and 0.2 mM Na3VO4). Test compounds were reconstituted in 100% DMSO and added to the reaction to give a final DMSO concentration of 5%. Reactions were initiated by the addition 20 ul per well of kinase buffer containing 200-300 ng purified cytoplasmic domain KDR protein (BPS Bioscience, San Diego, Calif.). Following a 15 minute incubation at 30° C., the reactions were washed 2 mls per well PBS-T. 100 ul of a monoclonal anti-phosphotyrosine antibody-peroxidase conjugate diluted 1:10,000 in PBS-T was added to the wells for 30 minutes. Following a 2 mls per well wash with PBS-Tween-20, 100 ul of 0-Phenylenediamine Dihydrochloride in phosphate-citrate buffer, containing urea hydrogen peroxide, was added to the wells for 7-10 minutes as a colorimetric substrate for the peroxidase. The reaction was terminated by the addition of 100 ul of 2.5N H2SO4 to each well and read using a microplate ELISA reader set at 492 nm.
[2] = molecular target: T1, Vascular endothelial growth factor receptor 2; assay: (§1) VEGFR2 Cellular Assay: Automated FLIPR (Fluorometric Imaging Plate Reader) technology was used to screen for inhibitors of VEGF induced increases in intracellular calcium levels in fluorescent dye loaded endothelial cells. HUVEC (human umbilical vein endothelial cells) (Clonetics) were seeded in 384-well fibronectin coated black-walled plates overnight @ 37° C./5% CO2. Cells were loaded with calcium indicator Fluo-4 for 45 minutes at 37° C. Cells were washed 2 times (Elx405, Biotek Instruments) to remove extracellular dye. For screening, cells were pre-incubated with test agents for 30 minutes, at a single concentration (10 uM) or at concentrations ranging from 0.0001 to 10.0 uM followed by VEGF165 stimulation (10 ng/mL). Changes in fluorescence at 516 nm were measured simultaneously in all 384 wells using a cooled CCD camera. Data were generated by determining max-min fluorescence levels for unstimulated, stimulated, and drug treated samples.; assay type: cell-based, Endothelial cell
[3] = molecular target: T2, Platelet-derived growth factor receptor beta (Homo sapiens, UniProt P09619); assay: as §1, with “PDGFRbeta : Automated” for “VEGFR2 Cellular Assay: Automated”, “of PDGF-induced” for “of VEGF induced”, “cells. NHDF-Ad (Normal Human Dermal Fibroblasts, Adult; Lonza)” for “cells. HUVEC (human umbilical vein endothelial cells) (Clonetics)”, “by PDGF-BB” for “by VEGF165”, “stimulation (30” for “stimulation (10”; assay type: cell-based, Endothelial cell
[4] = molecular target: T2, Platelet-derived growth factor receptor beta; assay: PDGFRbeta Kinase Assay: Biochemical PDGFRbeta kinase assays were performed in 96 well microtiter plates that were coated overnight with 75 ug of poly-Glu-Tyr (4:1) in 10 mM Phosphate Buffered Saline (PBS), pH 7.4. The coated plates were washed with 2 mls per well PBS+0.05% Tween-20 (PBS-T), blocked by incubation with PBS containing 1% BSA, then washed with 2 mls per wellPBS-T prior to starting the reaction. Reactions were carried out in 100 uL reaction volumes containing 36 uM ATP in kinase buffer (50 mM Hepes buffer pH 7.4, 20 mM MgCl2, 0.1 mM MnCl2 and 0.2 mM Na3VO4). Test compounds were reconstituted in 100% DMSO and added to the reaction to give a final DMSO concentration of 5%. Reactions were initiated by the addition 20 ul per well of kinase buffer containing 200-300 ng purified cytoplasmic domain PDGFR-b protein (Millipore). Following a 60 minute incubation at 30° C., the reactions were washed 2 mls per well PBS-T. 100 ul of a monoclonal anti-phosphotyrosine antibody-peroxidase conjugate diluted 1:10,000 in PBS-T was added to the wells for 30 minutes. Following a 2 mls per well wash with PBS-Tween-20, 100 ul of 0-Phenylenediamine Dihydrochloride in phosphate-citrate buffer, containing urea hydrogen peroxide, was added to the wells for 7-10 minutes as a colorimetric substrate for the peroxidase. […]

T1 sequence (P35968 whole entry, the tested form may be a part): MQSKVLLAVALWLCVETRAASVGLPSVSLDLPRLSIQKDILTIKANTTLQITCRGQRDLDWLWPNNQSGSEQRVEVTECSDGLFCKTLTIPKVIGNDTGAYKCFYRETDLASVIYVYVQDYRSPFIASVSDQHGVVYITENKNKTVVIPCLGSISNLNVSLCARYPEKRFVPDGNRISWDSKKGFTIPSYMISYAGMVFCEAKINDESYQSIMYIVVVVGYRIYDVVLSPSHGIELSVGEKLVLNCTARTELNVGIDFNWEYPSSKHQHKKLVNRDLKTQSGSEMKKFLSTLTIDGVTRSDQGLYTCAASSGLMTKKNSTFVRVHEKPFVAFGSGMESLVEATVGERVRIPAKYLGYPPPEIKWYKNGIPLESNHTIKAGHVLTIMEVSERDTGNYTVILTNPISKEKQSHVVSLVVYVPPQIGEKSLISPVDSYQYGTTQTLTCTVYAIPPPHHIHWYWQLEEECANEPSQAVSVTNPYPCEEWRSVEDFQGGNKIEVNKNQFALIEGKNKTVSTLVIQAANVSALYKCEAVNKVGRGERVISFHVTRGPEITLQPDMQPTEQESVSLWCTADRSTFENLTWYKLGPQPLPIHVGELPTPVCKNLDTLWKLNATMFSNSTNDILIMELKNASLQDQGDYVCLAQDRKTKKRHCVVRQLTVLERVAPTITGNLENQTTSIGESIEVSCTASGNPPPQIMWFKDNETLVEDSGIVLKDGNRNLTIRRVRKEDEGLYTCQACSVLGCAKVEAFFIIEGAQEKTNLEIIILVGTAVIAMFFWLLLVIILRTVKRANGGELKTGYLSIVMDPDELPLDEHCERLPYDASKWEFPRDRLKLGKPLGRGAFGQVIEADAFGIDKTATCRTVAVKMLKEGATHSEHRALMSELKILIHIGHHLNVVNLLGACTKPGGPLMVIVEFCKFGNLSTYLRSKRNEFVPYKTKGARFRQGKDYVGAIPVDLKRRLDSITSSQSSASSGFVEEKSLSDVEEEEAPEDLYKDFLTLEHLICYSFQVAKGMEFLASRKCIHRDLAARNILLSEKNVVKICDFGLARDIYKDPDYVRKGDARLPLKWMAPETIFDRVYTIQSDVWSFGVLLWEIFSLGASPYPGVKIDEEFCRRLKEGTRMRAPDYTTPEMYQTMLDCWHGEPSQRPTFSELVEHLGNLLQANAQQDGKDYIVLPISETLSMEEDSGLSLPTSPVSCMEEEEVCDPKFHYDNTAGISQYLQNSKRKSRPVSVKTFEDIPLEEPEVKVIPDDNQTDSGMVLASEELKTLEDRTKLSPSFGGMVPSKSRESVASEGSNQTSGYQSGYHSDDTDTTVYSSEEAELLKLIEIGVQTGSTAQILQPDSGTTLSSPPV
T2 sequence (P09619 whole entry): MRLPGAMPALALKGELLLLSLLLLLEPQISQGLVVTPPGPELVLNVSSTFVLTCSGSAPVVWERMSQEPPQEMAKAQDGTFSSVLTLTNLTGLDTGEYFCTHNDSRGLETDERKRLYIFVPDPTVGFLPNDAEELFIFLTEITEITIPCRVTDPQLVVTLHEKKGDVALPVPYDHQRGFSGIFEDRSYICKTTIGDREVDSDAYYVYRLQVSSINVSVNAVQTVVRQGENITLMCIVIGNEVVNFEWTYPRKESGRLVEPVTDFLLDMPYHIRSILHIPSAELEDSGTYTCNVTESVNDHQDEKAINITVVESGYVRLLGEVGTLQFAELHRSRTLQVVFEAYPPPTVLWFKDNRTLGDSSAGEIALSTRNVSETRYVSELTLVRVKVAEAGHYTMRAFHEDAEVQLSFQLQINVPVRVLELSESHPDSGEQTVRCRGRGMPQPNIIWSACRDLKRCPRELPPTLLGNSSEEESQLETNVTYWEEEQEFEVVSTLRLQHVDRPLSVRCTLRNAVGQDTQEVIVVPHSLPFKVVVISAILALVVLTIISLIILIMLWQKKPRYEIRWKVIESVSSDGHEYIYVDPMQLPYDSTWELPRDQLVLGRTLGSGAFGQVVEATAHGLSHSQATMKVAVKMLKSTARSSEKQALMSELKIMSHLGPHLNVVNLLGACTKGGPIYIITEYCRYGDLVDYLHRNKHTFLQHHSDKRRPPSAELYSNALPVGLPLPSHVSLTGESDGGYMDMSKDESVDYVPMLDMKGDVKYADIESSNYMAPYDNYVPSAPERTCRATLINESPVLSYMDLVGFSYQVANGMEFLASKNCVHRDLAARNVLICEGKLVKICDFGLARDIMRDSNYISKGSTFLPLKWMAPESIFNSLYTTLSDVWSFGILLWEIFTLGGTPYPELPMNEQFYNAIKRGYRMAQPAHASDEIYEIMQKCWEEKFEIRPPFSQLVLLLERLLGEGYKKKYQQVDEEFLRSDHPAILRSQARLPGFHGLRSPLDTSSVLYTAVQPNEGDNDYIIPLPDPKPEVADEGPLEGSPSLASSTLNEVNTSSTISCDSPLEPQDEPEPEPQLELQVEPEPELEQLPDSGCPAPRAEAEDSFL

Row | SMILES | IC50 [1] [nM] | IC50 [2] [nM] | IC50 [3] [nM] | IC50 [4] [nM]
1 | Cc1ccoc1C(=O)Nc1cccc(C#Cc2cncc(C(=O)N=S(C)(=O)CCCN3CCN(CCOCCO)CC3)c2)c1 (stereo not drawn) | 9 | 10 | – | –
2 | Cc1ccoc1C(=O)Nc1cccc(C#Cc2cc(C(=O)N=S(C)(=O)CC(=O)N3CC[C@H](O)C3)cnc2N)c1 (stereo partly drawn) | 3 | – | – | –
3 | Cc1ccoc1C(=O)Nc1cccc(C#Cc2cncc(C(=O)N=S(C)(=O)CCCO)c2)c1 (stereo not drawn) | 14 | 1 | 31 | –
4 | Cc1ccoc1C(=O)Nc1cccc(C#Cc2cncc(C(=O)N=[S@@](C)(=O)CCCO)c2)c1 | 3 | – | – | 18
